In brackets after ≈: the same amount, converted by molar mass.
Tests used:
Type in all cases: functional
[1] = Antioxidant activity assessed as DMPD radical scavenging activity
[2] = Antioxidant activity assessed as superoxide anion scavenging activity by NBT reduction assay
[3] = Antioxidant activity assessed as ABTS radical scavenging activity
[4] = test system: Radical scavenging activity; experiment: Antioxidant activity assessed as DPPH radical scavenging activity
[5] = Antioxidant activity assessed as hydrogen peroxide radical scavenging activity

IC50 [1] [mg/L] | IC50 [2] [mg/L] | IC50 [3] [mg/L] | IC50 [4] [mg/L] | IC50 [5] [mg/L] | SMILES
60.46 (≈ 228 µM) | 20.43 (≈ 77 µM) | 23.04 (≈ 86.8 µM) | 33.31 (≈ 126 µM) | 3.35 (≈ 12.6 µM) | COc1cc2c(c(OC)c1)-c1[nH]c3ccccc3c1C2
15.01 (≈ 63.8 µM) | 19.86 (≈ 84.4 µM) | 54.15 (≈ 230 µM) | 48.57 (≈ 206 µM) | 7.02 (≈ 29.8 µM) | COc1ccc2c(c1)-c1[nH]c3ccccc3c1C2
22.2 (≈ 93.6 µM) | 15.49 (≈ 65.3 µM) | 21.56 (≈ 90.9 µM) | 11.92 (≈ 50.2 µM) | 3.28 (≈ 13.8 µM) | Oc1ccc(O)c2c1Cc1c-2[nH]c2ccccc12
15.34 (≈ 54 µM) | 14.39 (≈ 50.6 µM) | 63.63 (≈ 224 µM) | 64.12 (≈ 226 µM) | 8.47 (≈ 29.8 µM) | Brc1ccc2c(c1)Cc1c-2[nH]c2ccccc12
31.47 (≈ 141 µM) | 16.49 (≈ 73.9 µM) | 39.1 (≈ 175 µM) | 49.73 (≈ 223 µM) | 4.41 (≈ 19.8 µM) | Fc1ccc2c(c1)Cc1c-2[nH]c2ccccc12
130.07 (≈ 588 µM) | 26.61 (≈ 120 µM) | 39.85 (≈ 180 µM) | 11.67 (≈ 52.7 µM) | 4.47 (≈ 20.2 µM) | Oc1ccc2c(c1)Cc1c-2[nH]c2ccccc12
24.87 (≈ 93.7 µM) | 15.75 (≈ 59.4 µM) | 32.76 (≈ 123 µM) | 51.67 (≈ 195 µM) | 3.92 (≈ 14.8 µM) | COc1ccc(OC)c2c1Cc1c-2[nH]c2ccccc12
76.58 (≈ 323 µM) | 14.1 (≈ 59.4 µM) | 45.98 (≈ 194 µM) | 29.44 (≈ 124 µM) | 5.09 (≈ 21.5 µM) | Oc1cc2c(cc1O)-c1[nH]c3ccccc3c1C2
57.89 (≈ 242 µM) | 16.2 (≈ 67.6 µM) | 82.87 (≈ 346 µM) | 44.18 (≈ 184 µM) | 30.52 (≈ 127 µM) | Clc1ccc2c(c1)Cc1c-2[nH]c2ccccc12
32.92 (≈ 160 µM) | 12.64 (≈ 61.6 µM) | 58.66 (≈ 286 µM) | 65.91 (≈ 321 µM) | 7.14 (≈ 34.8 µM) | c1ccc2c(c1)Cc1c-2[nH]c2ccccc12
127.21 (≈ 575 µM) | 21.69 (≈ 98 µM) | 9.72 (≈ 43.9 µM) | 10.12 (≈ 45.7 µM) | 2.8 (≈ 12.7 µM) | Oc1cccc2c1-c1[nH]c3ccccc3c1C2
34.79 (≈ 147 µM) | 31.14 (≈ 131 µM) | 79.02 (≈ 333 µM) | 9.47 (≈ 39.9 µM) | 3.16 (≈ 13.3 µM) | Oc1ccc2c(c1O)Cc1c-2[nH]c2ccccc12
28.5 (≈ 121 µM) | 21.99 (≈ 93.5 µM) | 29.91 (≈ 127 µM) | 38.16 (≈ 162 µM) | 3.74 (≈ 15.9 µM) | COc1cccc2c1Cc1c-2[nH]c2ccccc12
39.38 (≈ 166 µM) | 11.46 (≈ 48.3 µM) | 49.04 (≈ 207 µM) | 72.89 (≈ 307 µM) | 5.47 (≈ 23.1 µM) | Oc1cc(O)c2c(c1)Cc1c-2[nH]c2ccccc12
46.44 (≈ 175 µM) | 12.42 (≈ 46.8 µM) | 81.39 (≈ 307 µM) | 33.16 (≈ 125 µM) | 25.43 (≈ 95.8 µM) | COc1ccc2c(c1OC)Cc1c-2[nH]c2ccccc12
18.62 (≈ 74.7 µM) | 16.11 (≈ 64.6 µM) | 23.67 (≈ 95 µM) | 13.07 (≈ 52.4 µM) | 3.39 (≈ 13.6 µM) | c1ccc2c3c([nH]c2c1)-c1cc2c(cc1C3)OCO2
26.75 (≈ 121 µM) | 18.67 (≈ 84.4 µM) | 64.69 (≈ 292 µM) | 36.27 (≈ 164 µM) | 8.82 (≈ 39.9 µM) | Oc1cccc2c1Cc1c-2[nH]c2ccccc12
17.45 (≈ 74.2 µM) | 24.37 (≈ 104 µM) | 68.03 (≈ 289 µM) | 37.79 (≈ 161 µM) | 9.08 (≈ 38.6 µM) | COc1ccc2c(c1)Cc1c-2[nH]c2ccccc12
52.83 (≈ 199 µM) | 17.09 (≈ 64.4 µM) | 73.99 (≈ 279 µM) | 25.76 (≈ 97.1 µM) | 13.86 (≈ 52.2 µM) | COc1cc2c(cc1OC)-c1[nH]c3ccccc3c1C2
14.76 (≈ 66.7 µM) | 18.55 (≈ 83.8 µM) | 20.71 (≈ 93.6 µM) | 27.4 (≈ 124 µM) | 3.25 (≈ 14.7 µM) | Oc1ccc2c(c1)-c1[nH]c3ccccc3c1C2
– | 33.17 (≈ 77 µM) | 73.15 (≈ 170 µM) | 13.41 (≈ 31.1 µM) | 11.82 (≈ 27.4 µM) | Cc1c(C)c2c(c(C)c1O)CC[C@@](C)(CCC[C@H](C)CCC[C@H](C)CCCC(C)C)O2 [ALPHA-TOCOPHEROL]
17.45 (≈ 79.2 µM) | 49.48 (≈ 225 µM) | 52.81 (≈ 240 µM) | 42.91 (≈ 195 µM) | 5.97 (≈ 27.1 µM) | Cc1cc(C(C)(C)C)c(O)c(C(C)(C)C)c1 [BUTYLATED HYDROXYTOLUENE]
195.11 (≈ 780 µM) | – | 62.32 (≈ 249 µM) | 10.03 (≈ 40.1 µM) | 8.06 (≈ 32.2 µM) | Cc1c(C)c2c(c(C)c1O)CCC(C)(C(=O)O)O2 (stereo not drawn) [TROLOX]

SMILES | IC50 [1] [mg/L] | IC50 [2] [mg/L] | IC50 [3] [mg/L] | IC50 [4] [mg/L] | IC50 [5] [mg/L]
COc1ccc(O)c(C(C)(C)C)c1.COc1ccc(O)cc1C(C)(C)C [BUTYLATED HYDROXYANISOLE] | 32.92 | 68.82 | 4.65 | 16.67 | 2.65

From ChEMBL document CHEMBL1152559, “Antioxidant activity of 5,10-dihydroindeno[1,2-b]indoles containing substituents on dihydroindeno part” (Bioorg Med Chem, 2009)
